Assay results published in EP0444898A1, “Cyclic hexapeptide oxytocin antagonists” (MERCK & CO. INC., priority 1990, dated 1991).

Target: T1, uterine OT receptors (Rattus norvegicus, UniProt P70536)
T1 construct: a crude membrane preparation of uteri; from tissue; host or cells: uterus of DES-treated rats, crude membranes
T1 sequence (P70536 1-388): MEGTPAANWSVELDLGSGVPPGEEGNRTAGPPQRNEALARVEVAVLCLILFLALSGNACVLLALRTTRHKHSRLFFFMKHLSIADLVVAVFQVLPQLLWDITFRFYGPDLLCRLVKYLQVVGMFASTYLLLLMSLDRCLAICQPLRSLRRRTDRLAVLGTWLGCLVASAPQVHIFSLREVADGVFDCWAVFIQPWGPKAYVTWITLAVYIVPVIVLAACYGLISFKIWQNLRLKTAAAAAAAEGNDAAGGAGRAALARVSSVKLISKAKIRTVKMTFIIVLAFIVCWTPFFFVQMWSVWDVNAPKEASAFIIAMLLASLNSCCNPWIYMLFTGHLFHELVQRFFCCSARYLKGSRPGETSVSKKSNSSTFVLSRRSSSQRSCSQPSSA
Assay: [3H]OT radioligand binding to uterine OT receptors, crude membrane preparation
Parameters: species or system rats
Details: saturation binding assays; uterus

Substance: [tyrosyl, 3,5-^3H]OT [[^3H]OT]
- Kd: 700 pM
